Experiments:
Type in all cases: cell-based
[1] = tested on: NIH-3T3 (mouse embryonic fibroblast) cells; assay: Nucleic acid transfection experiment (oligo DNA level), FITC-labeled single-strand DNA, FACS; conditions: 0.3 μg FITC-labeled single-strand DNA (20 mer), 4 hours at 37° C.
Experimental: (§1) PC3 ([…]) cells, UMUC3 (human bladder carcinoma) cells, T24 (human urinary bladder carcinoma) cells and NIH-3T3 (mouse embryonic fibroblast) cells were separately precultured in a 12-well plate, either in a 10% FBS-containing RPMI medium (PC3 cells, NIH-3T3 cells, and T24 cells) or in a 10% FBS-containing DMEM medium (UMUC cells), to attain a 60 to 70% confluent state.
(§2) A 1 μl quantity of each of the compounds shown in Table 1 [solutions containing compound (1-A) or (1-B) at 0.37, 0.13 and 0.04 mM] was added to each of a corresponding number of containers each holding 50 μl of non-serum medium, mixed by tapping, and incubated at room temperature for 5 minutes. Subsequently, 0.3 μg of FITC-labeled single-strand DNA (20 mer) (FITC-[…]: product of Proligo) was added to each of the above-prepared media containing a carrier for nucleic acid transfection, mixed by tapping, and incubated at 37° C. for 30 minutes (mixed by tapping every 10 minutes). The obtained mixtures were separately added to the above wells in which the cell culture had been completed, leveled by lightly tapping, and then incubated at 37° C. for 4 hours. The cells were collected, and FITC-positive cells were counted by FACS to calculate DNA transfection efficiency (%) in cells. Further, for the comparison with conventional carriers for nucleic acid transfection (Lipofectamine 2000, TransIt-TKO, and Fugene 6), siRNA transfection efficiency (%) in PC3 cells was calculated in the same manner as above using the protocol recommended by the respective manufacturer and corresponding to a transfection nucleic acid amount of 0.3 μg.

[2] = tested on: PC3 (human lung adenocarcinoma) cells; assay: as above; conditions: for DNA transfection efficiency in cells (%): PC3, 0.3 μg FITC-labeled single-strand DNA (20 mer), 4 hours at 37° C.
Experimental: as §1, §2

[3] = tested on: T24 (human urinary bladder carcinoma) cells; assay: as above; conditions: 0.3 μg FITC-labeled single-strand DNA (20 mer), 4 hours at 37° C.
Experimental: as §1, §2

[4] = tested on: UMUC3 (human bladder carcinoma) cells; assay: as above; conditions: 0.3 μg FITC-labeled single-strand DNA (20 mer), 4 hours at 37° C.
Experimental: as §1, §2

[5] = tested on: PC3 (human lung adenocarcinoma) cells; assay: Nucleic acid transfection experiment (siRNA level), FITC-labeled siRNA, flow cytometer; conditions: compounds (1-A)/(1-B): 0.6 mM), 0.5 μg FITC-labeled siRNA, 2 hours
Experimental: (§3) In order to attain 50 to 60% confluence at the time of siRNA transfection, PC3 ([…]) cells, UMUC3 (human bladder carcinoma) cells and T24 (human urinary bladder carcinoma) cells were separately seeded in a 6-well plate on the day before the transfection and cultured at 37° C. in a 5% CO2 incubator.
(§4) A 100-μl quantity of Opti-MEM was added to each of several 1.5-ml tubes, and two samples each of 1, 3 and 10 μl of PBS solution containing the carriers for nucleic acid transfection of Reference Example 3 in one of the two samples and Reference Example 8 in the other sample (each carrier for nucleic acid transfection content had been adjusted so that compound (1L-A) was at 0.067 mM) were separately added to each tube and then left to stand at room temperature for about 10 minutes. Further, 0.5 μg of FITC-labeled siRNA (fluorescent labeled siRNA ((sense)Fluo-[…]/(antisense)[…]: product of Proligo) was added to each tube and then left to stand for 15 minutes, forming a complex of siRNA and the carrier for gene transfection.
(§5) Separately, 50 μl of Opti-MEM was added to each of several 1.5-ml tubes, and two samples each of 1, 3 and 10 μl of PBS solution containing 0.6 mM compound (1-A) in one of the two samples and 0.6 mM compound (1-B) in the other sample were separately added to each tube, mixed by tapping, and then left to stand at room temperature for 5 minutes. Further, 0.5 μg of FITC-labeled siRNA (same as above) was added to each tube and then left to stand for 30 minutes, forming a complex of the siRNA and carrier for gene transfection.
(§6) After a while, the prepared solutions containing the siRNA and carrier for gene transfection were separately added to the wells in which the cells were present at 50 to 60% confluence. The plates were slowly pitched and rolled, and culture was then performed at 37° C. under a condition of 5% CO2 for 2 hours. After the culture was completed, FITC-positive cells were counted by a flow cytometer to calculate the siRNA transfection efficiency (%) in cells. Further, for comparison with conventional carriers for nucleic acid transfection (Lipofectamine 2000, TransIt-TKO, Metafectene, and oligofectamine), siRNA transfection efficiency (%) in cells was calculated in the same manner as above using the protocol recommended by the respective manufacture and corresponding to a transfection nucleic acid amount of 0.5 μg.

[6] = tested on: T24 (human urinary bladder carcinoma) cells; assay: as above; conditions: compounds (1-A)/(1-B): 0.6 mM), 0.5 μg FITC-labeled siRNA, 2 hours
Experimental: as §3, §4, §5, §6

[7] = tested on: UMUC3 (human bladder carcinoma) cells; assay: as above; conditions: compounds (1-A)/(1-B): 0.6 mM), 0.5 μg FITC-labeled siRNA, 2 hours
Experimental: as §3, §4, §5, §6

[8] = 1 μl of 0.04 mM compound solution
[9] = 1 μl of 0.13 mM compound solution
[10] = 1 μl of 0.37 mM compound solution
[11] = amount 1 μl of carrier solution (Reference Examples: 0.067 mM as compound (1L-A)
[12] = amount 3 μl of carrier solution (Reference Examples: 0.067 mM as compound (1L-A)
[13] = amount 10 μl of carrier solution (Reference Examples: 0.067 mM as compound (1L-A)

N=C(N)NCCCC(N)C(=O)CC(CNC(=N)N)C(=O)NC(CCCNC(=N)N)C(=O)NCCCCC(N)C(=O)NC(CCCCNC(=O)C(CCCNC(=N)N)NC(=O)C(CNC(=N)N)CC(=O)C(N)CCCNC(=N)N)C(=O)NC(CCCCNC(=O)C(CCCNC(=N)N)NC(=O)C(CNC(=N)N)CC(=O)C(N)CCCNC(=N)N)C(=O)NC(CCCCNC(=O)C(CCCNC(=N)N)NC(=O)C(CNC(=N)N)CC(=O)C(N)CCCNC(=N)N)C(=O)NC(CCCCNC(=O)C(CCCNC(=N)N)NC(=O)C(CNC(=N)N)CC(=O)C(N)CCCNC(=N)N)C(=O)NCCCCCC(=O)NCCCCCC(N)=O (stereo not shown) [(1-B)]
DNA transfection efficiency in cells (%) [1, 8]: 84.0%
DNA transfection efficiency in cells (%) [1, 9]: 93.2%
DNA transfection efficiency in cells (%) [1, 10]: 87.0%
DNA transfection efficiency in cells (%) [2, 8]: 65.0%
DNA transfection efficiency in cells (%) [2, 9]: 76.1%
DNA transfection efficiency in cells (%) [2, 10]: 83.8%
suitability for introducing nucleic acids into cells (conclusion from Table 1) ([2]; conclusion over PC3, UMUC3, T24 and NIH-3T3 cells): excellently suitable for introducing nucleic acids into cells
DNA transfection efficiency in cells (%) [3, 8]: 13.4%
DNA transfection efficiency in cells (%) [3, 9]: 26.0%
DNA transfection efficiency in cells (%) [3, 10]: 31.4%
DNA transfection efficiency in cells (%) [4, 8]: 61.7%
DNA transfection efficiency in cells (%) [4, 9]: 77.2%
DNA transfection efficiency in cells (%) [4, 10]: 61.5%
siRNA transfection efficiency in cells (%) [5, 11]: 3.5%
siRNA transfection efficiency in cells (%) [5, 12]: 10.1%
siRNA transfection efficiency in cells (%) [5, 13]: 42.0%
siRNA transfection efficiency in cells (%) [6, 11]: 11.6%
siRNA transfection efficiency in cells (%) [6, 12]: 19.2%
siRNA transfection efficiency in cells (%) [6, 13]: 60.7%
siRNA transfection efficiency in cells (%) [7, 11]: 5.3%
siRNA transfection efficiency in cells (%) [7, 12]: 4.4%
siRNA transfection efficiency in cells (%) [7, 13]: 7.0%

Source: patent publication US20080234464A1, “Compound Having Amino Acid Residue or Peptide Residue and Process for Producing the Same” (priority 2005, published 2008)
